These results are taken from ChEMBL document CHEMBL4610081, “Anti-inflammatory Metabolites from Chaetomium nigricolor” (J Nat Prod, 2020).

Structures are written as SMILES. The source made the active and inactive calls. No cut-off for these calls is given here.

For the assay, the system named is RAW264.7. Kind of assay: Antiinflammatory activity against mouse RAW264.7 cells assessed as inhibition of LPS-induced NO production preincubated for 3 hrs followed by LPS-stimulation and measured after 24 hrs by Griess reagent based assay. Format: functional, cell-based.

For `COC(=O)CCC(=O)OCc1ccc(C(=O)O)o1`, the result was inactive.

For `COc1cc(OC)c2c(c1)cc(O)c1c(=O)cc(C)oc12`, the outcome was inactive.

As to `CC(=O)OCc1ccc(C(=O)O)o1`, the result was inactive.

For `NC(=O)c1coc(Cc2ccccc2)cc1=O`, the outcome was inactive.

For orientation: IC50 means the concentration needed to halve the response being measured. With `COc1cc(OC)c2c(O)c3c(=O)cc(C)oc3c(-c3c(OC)cc4cc(O)c5c(=O)cc(C)oc5c4c3OC)c2c1` (atropisomer aS) [FONSECINONE A], the Activity result is “Dose-dependent effect” and the IC50 worked out at 7 µM.

On to `COC(=O)/C=C/C(=O)O`, for which the outcome was inactive.

Consider `COc1cc(C)c2c(OC)cc(=O)oc2c1-c1c(OC)cc(C)c2c(OC)cc(=O)oc12`, for which the result was inactive.

In the case of `O=c1ccoc(Cc2ccccc2)c1`, the outcome was inactive.

`O=C(O)c1ccc(CO)o1`: the outcome was inactive.
